In this data set the test system is parent strain (SAWy518).

The record followed here is article PMC11637378, “Optogenetic screening of MCT1 activity implicates a cluster of non-steroidal anti-inflammatory drugs (NSAIDs) as inhibitors of lactate transport” (PLOS ONE, 2024).

Where “and” joins values, the source holds several entries; their conditions need not be identical. Identical values can stand only once. Counter-ions that a name gives are not always drawn.

Take `CCCc1c(-c2ccc(O)cc2)nn(-c2ccc(O)cc2)c1-c1ccc(O)cc1`: the OffScreen_percentage is recorded as 98.9963 percentage, the Offscreen_18hr stood at 0.7989, the Offscreen_24hr was 0.9026 and the Offscreen_42hr came out at 0.9515.

As for `CC(C)Cn1c(=O)n(C)c(=O)c2[nH]cnc21` [3-Isobutyl-1-methylxanthine, reference compound], the Offtarget entry is “NO” and the Offtarget_sub came out at 0.4308.

Regarding `O=C(/C=C/c1ccccc1)c1ccc(O)cc1` [4'-HYDROXYCHALCONE], the Offscreen_18hr is reported as 0.7341, the Offscreen_24hr was 0.8731 and the Offscreen_42hr turned out to be 0.9266.

On to `O=C(/C=C/c1ccc(O)cc1)c1ccccc1` [4-hydroxychalcone, reference compound], for which the OffScreen_percentage worked out at 103.693 percentage, the Offscreen_18hr came to 0.8368, the Offscreen_24hr came out at 0.9201 and the Offscreen_42hr stood at 0.9804. The Read_percentage came out at 103.693 percentage.

For the compound `CC[n+]1c(/C=C/C=C2/N(C)c3ccccc3C2(C)C)sc2ccccc21.[I-]` [AC-93253 iodide], the Offscreen_18hr was determined as 0.3559, the Offscreen_24hr is on record as 0.5533 and the Offscreen_42hr amounted to 0.821.

On to `C[n+]1c2cc(N)ccc2cc2ccc(N)cc21.[Cl-]` [ACRIFLAVINIUM HYDROCHLORIDE], for which the Offscreen_18hr was determined as 0.6168, the Offscreen_24hr stood at 0.8008 and the Offscreen_42hr is 0.904.

With `Nc1c2ccccc2nc2ccccc12` [AMINACRINE], the Offscreen_18hr is 0.3466, the Offscreen_24hr amounted to 0.4931 and the Offscreen_42hr is listed as 0.7904.

As for `Br.Br.N=C(N)SCCN` [AMINOETHYLISOTHIOUREA DIHYDROBROMIDE], the Offscreen_18hr is given as 0.0502, the Offscreen_24hr came to 0.0525 and the Offscreen_42hr is 0.1802.

On to `C[C@@H]1CC[C@H]2[C@@H](C)C(=O)O[C@@H]3O[C@@]4(C)CC[C@@H]1[C@]32OO4` [ARTEMISININ], for which the Offscreen_18hr is 0.4969, the Offscreen_24hr came to 0.7016 and the Offscreen_42hr is 0.8396.

With `O=C1NC(=O)/C(=C/c2ccc(-c3ccc(F)cc3O)o2)S1` [AS-252424], the Offscreen_18hr was 0.6896, the Offscreen_24hr is 0.8289 and the Offscreen_42hr came out at 0.8951.

Regarding `CCCCc1oc2ccccc2c1C(=O)c1cc(I)c(OCCN(CC)CC)c(I)c1` [Amiodarone hydrochloride], the Offscreen_18hr was determined as 0.3754, the Offscreen_24hr is 0.6492 and the Offscreen_42hr is 0.9258.

As to `N.S=C(S)N1CCCC1` [Ammonium pyrrolidinedithiocarbamate], the Offscreen_18hr worked out at 0.6686, the Offscreen_24hr was determined as 0.8623 and the Offscreen_42hr was 0.942.

With `CO[C@H]1O[C@@H]2O[C@@]3(C)CC[C@H]4[C@H](C)CC[C@@H]([C@H]1C)[C@@]24OO3` [Artemether], the Offscreen_18hr was determined as 0.3535, the Offscreen_24hr came to 0.4688 and the Offscreen_42hr is given as 0.7035.

For the compound `Cc1ccc(S(=O)(=O)/C=C/C#N)cc1` [BAY 11-7082 (BAY 11-7821)], the Offscreen_18hr is 0.151, the Offscreen_24hr is 0.3413 and the Offscreen_42hr was 0.9249.

For `CCCCCCCCCCCCC[N+](C)(C)Cc1ccccc1.[Cl-]` [BENZALKONIUM CHLORIDE], the Offscreen_18hr came out at 0.0504, the Offscreen_24hr was 0.056 and the Offscreen_42hr worked out at 0.5903.

Consider `CCc1oc2ccccc2c1C(=O)c1cc(Br)c(O)c(Br)c1` [BENZBROMARONE], for which the Offscreen_18hr came to 0.5194, the Offscreen_24hr was found to be 0.7137 and the Offscreen_42hr is 0.8516.

As for `COc1ccc(-c2coc3cc(OC(C)=O)cc(OC(C)=O)c3c2=O)cc1` [BIOCHANIN A DIACETATE], the Offscreen_18hr is 0.8079, the Offscreen_24hr stood at 0.8835 and the Offscreen_42hr was 0.9447.

In the case of `Cc1ccc(S(=O)(=O)/C=C/C#N)cc1` [Bay 11-7082], the Offscreen_18hr was 0.1157, the Offscreen_24hr is recorded as 0.2743 and the Offscreen_42hr turned out to be 0.896.

With `CC(C)(C)c1ccc(S(=O)(=O)/C=C/C#N)cc1` [Bay 11-7085], the Offscreen_18hr is 0.0422 and 0.0395; the Offscreen_24hr was 0.0424 and 0.04.

Take `Cc1c(N)nc([C@H](CC(N)=O)NC[C@@H](N)C(N)=O)nc1C(=O)N[C@H](C(=O)N[C@@H](C)[C@H](O)[C@@H](C)C(=O)N[C@@H](C(=O)NCCc1nc(-c2nc(C(=O)NCCC[S+](C)C)cs2)cs1)[C@@H](C)O)C(O[C@H]1O[C@H](CO)[C@H](O)[C@@H](O)[C@H]1O[C@H]1O[C@H](CO)[C@@H](O)[C@H](OC(N)=O)[C@@H]1O)c1c[nH]cn1.O=S(=O)([O-])O` (stereo partly drawn) [Bleomycin sulfate]: the Offscreen_18hr was 0.261, the Offscreen_24hr is 0.4579 and the Offscreen_42hr was 0.8554.

For `CC(C(=O)O)c1ccc2c(c1)[nH]c1ccc(Cl)cc12` (stereo not drawn) [CARPROFEN], the Offscreen_18hr is 0.7281, the Offscreen_24hr was found to be 0.8523 and the Offscreen_42hr is given as 0.8964.

For the compound `O=C1C(Cl)=C(Cl)C(=O)C(Cl)=C1Cl` [CHLORANIL], the Offscreen_18hr is 0.1832, the Offscreen_24hr is on record as 0.4077 and the Offscreen_42hr is on record as 0.9247.

On to `N#Cc1c(Cl)c(Cl)c(Cl)c(C#N)c1Cl` [CHLOROTHALONIL], for which the Offscreen_18hr came to 0.6512, the Offscreen_24hr is reported as 0.8372 and the Offscreen_42hr is given as 0.9297.

Take `Clc1ccccc1C(c1ccccc1)(c1ccccc1)n1ccnc1` [CLOTRIMAZOLE]: the Offscreen_18hr was 0.0789, the Offscreen_24hr worked out at 0.1029 and the Offscreen_42hr is reported as 0.8087.

As for `Oc1c(Cl)cc(Cl)c2cccnc12` [Capitrol], the Offscreen_18hr is 0.0472, the Offscreen_24hr amounted to 0.0467 and the Offscreen_42hr is 0.0526.

For `[H]/N=C(\N/C(=N/[H])NCCCCCCNC(=N)NC(=N)Nc1ccc(Cl)cc1)Nc1ccc(Cl)cc1` [Chlorhexidine hydrochloride], the Offscreen_18hr came out at 0.5517, the Offscreen_24hr amounted to 0.7908 and the Offscreen_42hr came to 0.9568.

`CCN(CC)CCOc1ccc(C(=C(Cl)c2ccccc2)c2ccccc2)cc1` [Clomifene citrate]: the Offscreen_18hr is listed as 0.6687, the Offscreen_24hr stood at 0.875 and the Offscreen_42hr stood at 0.9713.

For `N#Cc1ccc(Oc2ccc3c(c2)COB3O)cc1` [Crisaborole], the Offscreen_18hr was 0.594, the Offscreen_24hr is listed as 0.7965 and the Offscreen_42hr was determined as 0.9431.

As for `Oc1ccc(Cl)cc1Cc1cc(Cl)ccc1O` [DICHLOROPHEN], the Offscreen_18hr is on record as 0.5869, the Offscreen_24hr is given as 0.7921 and the Offscreen_42hr is 0.8823.

As for `C=CC(C1=CC(=O)C(OC)=CC1=O)c1ccc(O)cc1` (stereo not drawn) [Dalbergione,4-methoxy-4-hydroxy-], the OffScreen_percentage worked out at 102.367 percentage, the Offscreen_18hr is reported as 0.8261, the Offscreen_24hr was found to be 0.9183 and the Offscreen_42hr is listed as 0.9703. The Read_percentage stood at 102.367 percentage.

For the compound `CCN(CC)C(=S)SSC(=S)N(CC)CC` [Disulfiram], the Offscreen_18hr amounted to 0.0526, the Offscreen_24hr is on record as 0.0614 and the Offscreen_42hr is 0.7775.

Turning to `COc1cccc2c1C(=O)c1c(O)c3c(c(O)c1C2=O)C[C@@](O)(C(=O)CO)C[C@H]3O[C@H]1C[C@H](N)[C@H](O)[C@H](C)O1.Cl` [Doxorubicin (Adriamycin)], the Offscreen_18hr is listed as 0.4346, the Offscreen_24hr came to 0.6005 and the Offscreen_42hr was 0.8771.

For the compound `O=c1c2ccccc2[se]n1-c1ccccc1` [EBSELEN], the Offscreen_18hr worked out at 0.0405, the Offscreen_24hr was 0.0408 and the Offscreen_42hr came to 0.0412.

For the compound `C=CCOC(Cn1ccnc1)c1ccc(Cl)cc1Cl.O=S(=O)(O)O` (stereo not drawn) [ENILCONAZOLE SULFATE], the Offscreen_18hr worked out at 0.81, the Offscreen_24hr was 0.8908 and the Offscreen_42hr turned out to be 0.9485.

In the case of `O=C([O-])c1ccccc1-c1c2cc(I)c(=O)c(I)c-2oc2c(I)c([O-])c(I)cc12.[Na+].[Na+]` [ERYTHROSINE SODIUM], the Offscreen_18hr is reported as 0.8136, the Offscreen_24hr came out at 0.8985 and the Offscreen_42hr is 0.9466.

For `O=C(O)Cc1ccc(-c2ccccc2)cc1` [FELBINAC], the Offscreen_18hr is listed as 0.6742, the Offscreen_24hr is reported as 0.7657 and the Offscreen_42hr was found to be 0.7971.

In the case of `OC(Cn1cncn1)(Cn1cncn1)c1ccc(F)cc1F` [FLUCONAZOLE], the Offscreen_18hr came out at 0.7681, the Offscreen_24hr was 0.8873 and the Offscreen_42hr is recorded as 0.9468.

Consider `Nc1[nH]c(=O)ncc1F` [FLUCYTOSINE], for which the Offscreen_18hr is recorded as 0.7196, the Offscreen_24hr came to 0.8771 and the Offscreen_42hr came to 0.9452.

Regarding `CCCCCCCCc1ccc(CCC(N)(CO)CO)cc1.Cl` [Fingolimod (FTY720)], the Offscreen_18hr was found to be 0.0535, the Offscreen_24hr was 0.0624 and the Offscreen_42hr is listed as 0.7799.

On to `COc1ncc(-c2ccc3nccc(-c4ccnnc4)c3c2)cc1NS(=O)(=O)c1ccc(F)cc1F` [GSK2126458 (GSK458)], for which the Offscreen_18hr is listed as 0.433, the Offscreen_24hr was 0.6688 and the Offscreen_42hr was 0.9364.

Turning to `CCCCCCc1ccc(O)cc1O` [HEXYLRESORCINOL], the Offscreen_18hr came out at 0.6446, the Offscreen_24hr is listed as 0.822 and the Offscreen_42hr is 0.8874.

For the compound `O=C(Nc1cc(C(F)(F)F)cc(C(F)(F)F)c1)c1cc(Cl)ccc1O` [IMD 0354], the Offscreen_18hr stood at 0.1675, the Offscreen_24hr worked out at 0.2933 and the Offscreen_42hr stood at 0.8452.
